Results as given in PubChem BioAssay AID298 (DTP/NCI, 2004).
Where “and” joins values, the source holds several entries; their conditions need not be identical. Identical values can stand only once. Records with an inconclusive call do not appear.

Test system: MX-1 breast xenograft, intrarenal, nude mice, tumor weight
Experiment: NCI In Vivo Anticancer Drug Screen. Data for tumor model Human Mammary Carcinoma MX-1 Xenograft (intrarenal inoculation) in NU/NU BALB/C (nude) mice
Settings: endpoint: mean tumor weight change, higher = larger tumour
Method in brief: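 Transplantable tumors established in mice; animals dosed with compound or vehicle; survival or tumor size then recorded. Result reported as treated (T) divided by vehicle control (C).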

[1] = dose: 5.0 mg/kg/injection, schedule: Q04DX003 (ip), vehicle: Klucel (hydroxypropylcellulose) (HPC)
[2] = dose: 10.0 mg/kg/injection, schedule: Q04DX003 (ip), vehicle: Klucel (hydroxypropylcellulose) (HPC)
[3] = dose: 20.0 mg/kg/injection, schedule: Q04DX003 (ip), vehicle: Klucel (hydroxypropylcellulose) (HPC)
[4] = dose: 300.0 mg/kg/injection, schedule: Q04DX003 (ip), vehicle: saline with Tween-80
[5] = dose: 75.0 mg/kg/injection, schedule: Q04DX003 (ip), vehicle: other

C=COC(=O)C(Cc1ccccc1)NC(=O)OCc1ccccc1 (stereo not drawn)
T/C (dose: 300.0 mg/kg/injection, schedule: Q04DX003 (sc), vehicle: saline with Tween-80): 63 % of control
T/C (dose: 600.0 mg/kg/injection, schedule: Q04DX003 (sc), vehicle: saline with Tween-80): 85 % of control
T/C (dose: 1200.0 mg/kg/injection, schedule: Q04DX003 (sc), vehicle: saline with Tween-80): 112 % of control

CC(=O)O[C@H]1C(=O)[C@@]2(C)C(C(OC(=O)c3ccccc3)[C@]3(O)C[C@H](OC(=O)C(OC(=O)CCCC(=O)NCCCN(C)C)C(NC(=O)c4ccccc4)c4ccccc4)C(C)=C1C3(C)C)C1(OC(C)=O)COC1C[C@@H]2O (stereo partly drawn)
T/C (dose: 2.5 mg/kg/injection, schedule: Q01DX009 (ip), vehicle: water): 22 % of control
T/C (dose: 5.0 mg/kg/injection, schedule: Q01DX009 (ip), vehicle: water): 1 % of control
T/C (dose: 10.0 mg/kg/injection, schedule: Q01DX009 (ip), vehicle: water): 1 % of control
T/C (dose: 20.0 mg/kg/injection, schedule: Q01DX009 (ip), vehicle: water): -100 % of control
T/C (dose: 40.0 mg/kg/injection, schedule: Q01DX009 (ip), vehicle: water): -100 % of control

NCCCNCCCCNC(=O)C(O)NC(=O)CCCCCCN=C(N)N (stereo not drawn)
T/C (dose: 25.0 mg/kg/injection, schedule: Q04DX003 (ip), vehicle: saline with Tween-80): 69 % of control

COc1cc2c(c(OC)c1O)-c1ccc(OC)c(=O)cc1[C@@H](NC(=O)C(F)(F)F)CC2
T/C (dose: 2.5 mg/kg/injection, schedule: Q04DX003 (ip), vehicle: Klucel (hydroxypropylcellulose) (HPC)): 62 % of control
T/C [1]: 60 % of control
T/C [2]: 35 % of control
T/C [3]: 34 % of control

CCOc1ccc(C(C)c2cc3c(cc2OC)OCO3)cc1 (stereo not drawn)
T/C (dose: 150.0 mg/kg/injection, schedule: Q04DX003 (ip), vehicle: distilled water + Tween-80): 93 % of control
T/C (dose: 300.0 mg/kg/injection, schedule: Q04DX003 (ip), vehicle: distilled water + Tween-80): 56 % of control
T/C (dose: 600.0 mg/kg/injection, schedule: Q04DX003 (ip), vehicle: distilled water + Tween-80): 27 % of control

COc1cccc2c1C(=O)c1c(O)c3c(c(O)c1C2=O)C[C@@](O)(/C(C)=N\O)C[C@@H]3OC1CC(N)C(O)C(C)O1 (stereo partly drawn)
T/C (dose: 12.5 mg/kg/injection, schedule: Q04DX003 (sc), vehicle: saline): 64 % of control
T/C (dose: 25.0 mg/kg/injection, schedule: Q04DX003 (sc), vehicle: saline): 58 % of control
T/C (dose: 50.0 mg/kg/injection, schedule: Q04DX003 (sc), vehicle: saline): 23 % of control

CCCCNP1(NCCCC)=NP(NCCCC)(NCCCC)=NP(NCCCC)(NCCCC)=NP(NCCCC)(NCCCC)=N1
T/C (dose: 150.0 mg/kg/injection, schedule: Q04DX003 (ip), vehicle: saline with Tween-80): 89 % of control
T/C [4]: 73 % of control

CC[C@](C)(O)C(=O)O[C@H]1C(=O)O[C@@H]2C[C@H]3C(C)=CC(=O)[C@@H](O)[C@]3(C)[C@H]3[C@@]4(O)OC[C@]32[C@@H]1[C@@H](C)[C@H]4O
T/C (dose: 0.25 mg/kg/injection, schedule: Q01DX010 (sc), vehicle: Klucel (hydroxypropylcellulose) (HPC)): 23 % of control
T/C (dose: 0.5 mg/kg/injection, schedule: Q01DX010 (sc), vehicle: Klucel (hydroxypropylcellulose) (HPC)): 2 % of control

S=C(NCNC(=S)c1ccncc1)c1ccncc1
T/C [4]: 97 % of control
T/C (dose: 600.0 mg/kg/injection, schedule: Q04DX003 (ip), vehicle: saline with Tween-80): 40 % of control

COC(=O)c1ccc(N=NN(C)COC(C)=O)cc1
T/C (dose: 60.0 mg/kg/injection, schedule: Q04DX003 (ip), vehicle: Klucel (hydroxypropylcellulose) (HPC)): 50 % of control
T/C (dose: 120.0 mg/kg/injection, schedule: Q04DX003 (ip), vehicle: Klucel (hydroxypropylcellulose) (HPC)): 21 % of control
T/C (dose: 400.0 mg/kg/injection, schedule: Q04DX003 (ip), vehicle: Klucel (hydroxypropylcellulose) (HPC)): 56 % of control and 58 % of control
T/C (dose: 666.67 mg/kg/injection, schedule: Q04DX003 (ip), vehicle: Klucel (hydroxypropylcellulose) (HPC)): 33 % of control and 40 % of control

O=C(NO)c1ccccc1
T/C (dose: 100.0 mg/kg/injection, schedule: Q01DX010 (sc), vehicle: Klucel (hydroxypropylcellulose) (HPC)): 89 % of control
T/C (dose: 200.0 mg/kg/injection, schedule: Q01DX010 (sc), vehicle: Klucel (hydroxypropylcellulose) (HPC)): 61 % of control
T/C (dose: 400.0 mg/kg/injection, schedule: Q01DX010 (sc), vehicle: Klucel (hydroxypropylcellulose) (HPC)): 21 % of control

C=C(C)/C([O-])=N/[N+](C)(C)CC(O)CCCCCCCCCCCC (stereo not drawn)
T/C [1]: 76 % of control
T/C [2]: 111 % of control
T/C [3]: 90 % of control and 103 % of control
T/C (dose: 40.0 mg/kg/injection, schedule: Q04DX003 (ip), vehicle: Klucel (hydroxypropylcellulose) (HPC)): 78 % of control
T/C (dose: 80.0 mg/kg/injection, schedule: Q04DX003 (ip), vehicle: Klucel (hydroxypropylcellulose) (HPC)): 102 % of control and 118 % of control
T/C (dose: 320.0 mg/kg/injection, schedule: Q04DX003 (ip), vehicle: Klucel (hydroxypropylcellulose) (HPC)): 85 % of control

Cc1ccc(C2=CSC3=NCCN23)cc1Cl
T/C (dose: 37.5 mg/kg/injection, schedule: Q04DX003 (ip), vehicle: saline): 85 % of control

C[C@@]1(CO)[C@H](O)CC[C@@]2(C)[C@H]1CC[C@H]1C[C@@H]3C[C@@]12CC[C@@]3(O)COC(=O)CN
T/C (dose: 50.0 mg/kg/injection, schedule: Q04DX003 (ip), vehicle: saline + alcohol): 107 % of control
T/C (dose: 100.0 mg/kg/injection, schedule: Q04DX003 (ip), vehicle: saline + alcohol): 95 % of control

[N-]=[N+]=CC(=O)CCC(NC(=O)OCc1ccccc1)C(=O)OCc1ccccc1 (stereo not drawn)
T/C (dose: 300.0 mg/kg/injection, schedule: Q04DX003 (ip), vehicle: Klucel (hydroxypropylcellulose) (HPC)): 6 % of control and 23 % of control and 27 % of control
T/C (dose: 450.0 mg/kg/injection, schedule: Q04DX003 (ip), vehicle: Klucel (hydroxypropylcellulose) (HPC)): 20 % of control
T/C (dose: 600.0 mg/kg/injection, schedule: Q04DX003 (ip), vehicle: Klucel (hydroxypropylcellulose) (HPC)): 6 % of control and 16 % of control
T/C (dose: 900.0 mg/kg/injection, schedule: Q04DX003 (ip), vehicle: Klucel (hydroxypropylcellulose) (HPC)): 1 % of control
T/C (dose: 1200.0 mg/kg/injection, schedule: Q04DX003 (ip), vehicle: Klucel (hydroxypropylcellulose) (HPC)): 22 % of control

Cc1ccc(/C=C/C(=O)/C=C/c2ccc(C)o2)o1
T/C (dose: 100.0 mg/kg/injection, schedule: Q04DX003 (ip), vehicle: DMSO): 94 % of control
T/C (dose: 200.0 mg/kg/injection, schedule: Q04DX003 (ip), vehicle: DMSO): 112 % of control
T/C (dose: 800.0 mg/kg/injection, schedule: Q04DX003 (ip), vehicle: DMSO): 107 % of control

NC(Cc1ccc(N(CCCl)CCCl)cc1)C(=O)O (stereo not drawn)
T/C (dose: 10.0 mg/kg/injection, schedule: Q04DX003 (sc), vehicle: Klucel (hydroxypropylcellulose) (HPC)): -85 % of control and -98 % of control
T/C (dose: 20.0 mg/kg/injection, schedule: Q04DX003 (sc), vehicle: Klucel (hydroxypropylcellulose) (HPC)): -90 % of control

Clc1cccc(Cl)c1C(Nc1nncs1)Nc1nncs1
T/C (dose: 100.0 mg/kg/injection, schedule: Q04DX003 (ip), vehicle: saline with Tween-80): 94 % of control
T/C (dose: 200.0 mg/kg/injection, schedule: Q04DX003 (ip), vehicle: saline with Tween-80): 73 % of control
T/C (dose: 400.0 mg/kg/injection, schedule: Q04DX003 (ip), vehicle: saline with Tween-80): 44 % of control

O=NNc1ccc2cccnc2n1
T/C (dose: 37.5 mg/kg/injection, schedule: Q04DX003 (ip), vehicle: other): 6 % of control
T/C (dose: 37.5 mg/kg/injection, schedule: Q04DX003 (ip), vehicle: water): 63 % of control
T/C [5]: -45 % of control
T/C (dose: 75.0 mg/kg/injection, schedule: Q04DX003 (ip), vehicle: water): 17 % of control
T/C (dose: 150.0 mg/kg/injection, schedule: Q04DX003 (ip), vehicle: water): 9 % of control

COc1cccc2c1C(=O)c1c(O)c3c(c(O)c1C2=O)C[C@@](O)(C(=O)CO)C[C@@H]3OC1CC(N)C(O)C(C)O1 (stereo partly drawn)
T/C (dose: 2.0 mg/kg/injection, schedule: Q04DX003 (ip), vehicle: water): 33 % of control
T/C (dose: 4.0 mg/kg/injection, schedule: Q04DX003 (ip), vehicle: water): 7 % of control
T/C (dose: 8.0 mg/kg/injection, schedule: Q04DX003 (ip), vehicle: water): -88 % of control

CC(=O)OCC1OC([S-])C(OC(C)=O)C(OC(C)=O)C1OC(C)=O.CC[PH+](CC)CC.CC[PH+](CC)CC.[Au].[Au] (stereo not drawn)
T/C (dose: 3.13 mg/kg/injection, schedule: Q04DX003 (ip), vehicle: Klucel (hydroxypropylcellulose) (HPC)): 110 % of control
T/C (dose: 12.5 mg/kg/injection, schedule: Q04DX003 (ip), vehicle: Klucel (hydroxypropylcellulose) (HPC)): 73 % of control

CN(N=O)C(=O)N[C@@H](C=O)[C@@H](O)[C@H](O)[C@H](O)CO
T/C (dose: 37.0 mg/kg/injection, schedule: Q04DX003 (ip), vehicle: other): 193 % of control
T/C [5]: 117 % of control
T/C (dose: 150.0 mg/kg/injection, schedule: Q04DX003 (ip), vehicle: other): 70 % of control
T/C (dose: 150.0 mg/kg/injection, schedule: Q04DX003 (sc), vehicle: saline): 63 % of control
